From patent US20090246134A1, “COMPOSITIONS AND METHODS FOR MODULATING GATED ION CHANNELS” (PainCeptor Pharma Corporation, priority 2007, published 2009) come the findings set out here.

The subject of assay [1] is native sensory-neuron gated ion channels. Put plainly: Patch-clamp electrophysiology of sensory neurons in primary culture. The format is cell-based, rat. Particulars: n=3. An excerpt: This example describes another in vitro assessment of the inhibitory activity of the compounds of the present invention utilizing patch-clamp electrophysiology of sensory neurons in primary culture.
Sensory neurons can be isolated and cultured in vitro from different animal species. The most widely used protocols use sensory neurons isolated from neonatal (Eckert, et al. (1997) J Neurosci Methods 77:183-190) and embryonic (Vasko, et al. (1994) J Neurosci 14:4987-4997) rat. […] Electrophysiology is performed similarly as described above in Example 2. In the voltage-clamp mode, trans-membrane currents are recorded. Compounds A and H at 1 μM inhibit the pH 6.5-induced inward current. In the current-clamp mode, change in the trans-membrane potential are recorded. Under acidic conditions (e.g., pH 6.5) the membrane depolarizes, leading to the firing of action potentials. Compounds A and H at 1 μM inhibit the acid-induced membrane depolarization and reduce the ensuing rate of action potential firing.
A general note: The patch-clamp technique gives a direct electrical read-out from membranes.

Assay [2] deals with CFA-induced change in weight bearing in Sprague-Dawley rats. Put plainly: CFA model of chronic inflammatory pain, hindpaw weight bearing. The assay is classed as in vivo, rat. Particulars: 24 h after CFA; 60 min after drug; Compound A 5, 10, 20 mg/kg i.p.; Compound H 10, 30, 60 mg/kg; morphine 3, 6, 10 mg/kg; n=7-8. On the procedure:
Rats (body weight 260-300 g) were given a s.c. injection of CFA (50% in saline, 100 μl, Sigma) into the plantar surface of the hindpaw under brief halothane anaesthesia. After 24 h, they were then tested for hindpaw weight bearing responses, as assessed using an Incapacitance Tester (Linton Instrumentation, UK), (Zhu et al., 2005). The instrument incorporates a dual channel scale that separately measures the weight of the animal distributed to each hindpaw. While normal rats distribute their body weight equally between the two hindpaws (50-50), the discrepancy of weight distribution between an injured and non-injured paw is a natural reflection of the discomfort level in the injured paw (nocifensive behavior). The rats were placed in the plastic chamber designed so that each hindpaw rested on a separate transducer pad. […] For each rat, three readings from each paw were taken and then averaged. Side-to-side weight bearing difference was calculated as the average of the absolute value of the difference between two hindpaws from three trials (right paw reading-left paw reading).
Hindpaw weight bearing responses were measured in male Sprague-Dawley rats for 2-3 days prior to being given a hindpaw injection of CFA. Twenty-four hours later baseline responses were measured and rats were then administered Compound A (5, 10 and 20 mg/kg, i.p.), Compound H (10, 30 and 60 mg/kg) and morphine (3, 6 and 10 mg/kg). Weight bearing responses were then measured at 30, 60 and 120 min after drug or vehicle injection (data shown at 60 min.). […] All groups n=7-8.

For assay [3], the system named is formalin-induced pain in Sprague-Dawley rats. Put plainly: Formalin model of acute tonic pain. The assay is classed as in vivo, rat. Particulars: rat, in vivo. On the procedure: Male Sprague-Dawley rats are housed together in groups of three animals under standard conditions with unrestricted access to food and water. All experiments are conducted according to the ethical guidelines for investigations of experimental pain in conscious animals (Zimmerman, 1983)
Assessment of formalin-induced flinching behavior in normal, uninjured rats (body weight 150-180 g) was made with the use of an Automated Nociception Analyser (University of California, San Diego, USA). Briefly, this involved placing a small C-shaped metal band (10 mm wide×27 mm long) on the hindpaw of the rat to be tested. The rats (four rats were included in each testing session) were then placed in a cylindrical plexiglass observation chamber (diameter 30.5 cm and height 15 cm) for 20 min for adaptation purposes prior to being administered drug or vehicle according to the experimental paradigm being followed. After adaptation, individual rats were then gently restrained and formalin (5% in saline, 50 μl, s.c.) was injected into the plantar surface of the hindpaw using a 27 G needle. Rats were then returned to their separate observation chambers, each of which were in turn situated upon an enclosed detection device consisting of two electromagnetic coils designed to produce an electromagnetic field in which movement of the metal band could be detected. The analogue signal was then digitised and a software algorithm (LabView) applied to enable discrimination of flinching behaviour from other paw movements. A sampling interval of 1 min was used and on the basis of the resulting response patterns 5 phases of nociceptive behaviour were identified and scored: first phase (P1; 0-5 min), interphase (Int; 6-15 min), second phase (P2; […]), phase 2A (P2A; 16-40 min) and phase 2B (P2B; 41-60 min).
Nociceptive behavior was also determined manually every 5 min by measuring the amount of time spent in each of four behavioral categories: 0, treatment of the injected hindpaw is indistinguishable from that of the contralateral paw; 1, the injected paw has little or no weight placed on it; 2, the injected paw is elevated and is not in contact with any surface; 3, the injected paw is licked, bitten, or shaken. A weighted nociceptive score, ranging from 0 to 3 was calculated by multiplying the time spent in each category by the category weight, summing these products, and dividing by the total time for each 5 min block of time. (Coderre et al., Pain 1993; 54: 43). On the basis of the resulting response patterns, 2 phases of nociceptive behavior were identified and scored: first phase (P1; 0-5 min), interphase (Int; 6-15 min), second phase (P2; […]), phase 2A (P2A; 16-40 min) and phase 2B (P2B; 41-60 min).
Statistical analysis was performed using Prism™ 4.01 software package (GraphPad, San Diego, Calif., USA). The difference in response levels between treatment groups and control vehicle group was analyzed using an ANOVA followed by Bonferroni's method for post-hoc pair-wise comparisons. A p value<0.05 was considered to be significant
The effect of Compound A on pain induced by intraplantar formalin injection was investigated. Compound A was administered i.p. 30 min. before the formalin. Compound A was able to reduce the total pain score behavior (flinching, licking, biting) in phase 1 and 2 of the formalin test.

Regarding `CCN1CCc2c(-c3ccccc3)cc3c(c2C1)NC(=O)/C3=N/O` [Compound H, 5-phenyl-6,7,8,9-tetrahydro-3-(hydroxyimino)-8-ethyl-1H-pyrrolo[3,2-h]isoquinoline-2(3H)-one], the acid-induced membrane depolarization entry in assay [1] (current-clamp mode, 1 μM) was “inhibit”. Moreover, the “rate of action potential firing” value in assay [1] (current-clamp mode, acidic conditions, 1 μM) is “reduce”. Moreover, in assay [1], the “activity of native sensory-neuron gated ion channels” value is “effectively modulate”. In addition, the “pH 6.5-induced inward current” value in assay [1] (voltage-clamp mode, 1 μM) was “inhibit”. Also, the “CFA-induced change in weight bearing compared with vehicle” value in assay [2] is recorded as “marked dose-dependent attenuation”. In addition, in assay [3], the “acute tonic pain induced by formalin injection in the paw” value is “block”.
